According to patent publication US12678488B2, “Batch management method for improving farrowing rate or number of piglets born alive in swine” (priority 2024, dated 2026):
Marks after values point to notes of the source that are not given here.

Tested on: Landrace x Large White reserve sows
Experiment: Heat detection: estrus rate and estrus time in gilts, different doses (Example 2)
Format: in vivo, pigs
Settings: gilts
Text: Landrace x Large White reserve sows, about 230 days old, were randomly divided into a batch farrowing with FTAI and batch farrowing with FTAI combined with different doses of 1-[bis(4-cyanophenyl)methyl]-1,2,4-triazole groups, and during the experiment, the experimental sows in each group were fed regularly and gained free access to water according to the requirements of feeding management in the farm.
Referring to the dosage of 1-[bis(4-cyanophenyl)methyl]-1,2,4-triazole in clinical medicine and using standard weight-dosage conversion, the recommended dosage of 1-[bis(4-cyanophenyl)methyl]-1,2,4-triazole for sows was 50-150 μg/kg·BW/day, orally for consecutive 5 days, as derived by conversion. In addition, the applicant previously studied uniparous cows, and in the ovulation induction scheme, the reference dosage of 1-[bis(4-cyanophenyl)methyl]-1,2,4-triazole was 60-200 μg/kg·BW, administered in a single dose; furthermore, by means of conversion in conjunction with the dosage for model animals (mice) previously in the laboratory, various dosages were designed. The treatment methods of hormones and drugs for sows in each group were as follows: • batch farrowing with FTAI: the sows were fed with an altrenogest oral solution at 20 mg/animal at the same time every day, for 18 days; PMSG at 1000 IU/animal was injected intramuscularly 42 h after the last feeding with altrenogest, GnRH at 100 μg/animal was injected intramuscularly 80 h after the injection of PMSG, a first timed insemination was performed 24 h after the injection of GnRH, and a second timed insemination was performed 16 h after the first insemination.
(§1) Treatment group 1: the hormone treatment and mating schemes for gilts were the same as FTAI. The difference lay in that PMSG at 1000 IU/gilt was injected intramuscularly 42 h after the last feeding with altrenogest, and 1-[bis(4-cyanophenyl)methyl]-1,2,4-triazole at 12 μg/kg·BW/day was administered orally 8 h after the injection of PMSG, for 1 day.
as §1, with “2:” for “1:”, “2 days.” for “1 day.”
as §1, with “3:” for “1:”, “20” for “12”
as §1, with “4:” for “1:”, “sows” for “gilts”, “1-[bis (4-cyanophenyl)methyl]-1,2,4-triazole” for “1-[bis(4-cyanophenyl)methyl]-1,2,4-triazole”, “20” for “12”, “2 days.” for “1 day.”
as §1, with “5:” for “1:”, “IU/animal” for “IU/gilt”, “20” for “12”, “3 days.” for “1 day.”
as §1, with “6:” for “1:”, “IU/animal” for “IU/gilt”, “20” for “12”, “5 days.” for “1 day.”
Treatment group 7: the hormone treatment and mating schemes for gilts were the same as FTAI. […]

[1] = Example 2 Treatment group 1: 12 μg/kg·BW/day orally, 1 day
[2] = Example 2 Treatment group 2: 12 μg/kg·BW/day orally, 2 days
[3] = Example 2 Treatment group 3: 20 μg/kg·BW/day orally, 1 day
[4] = Example 2 Treatment group 4: 20 μg/kg·BW/day orally, 2 days
[5] = Example 2 Treatment group 5: 20 μg/kg·BW/day orally, 3 days
[6] = Example 2 Treatment group 6: 20 μg/kg·BW/day orally, 5 days
[7] = Example 2 Treatment group 7: 40 μg/kg·BW/day orally, 1 day
[8] = Example 2 Treatment group 8: 40 μg/kg·BW/day orally, 5 days
[9] = Example 2 Treatment group 9: 80 μg/kg·BW/day orally, 5 days
[10] = Example 2 Treatment group 10: 160 μg/kg·BW/day orally, 5 days

SMILES: N#Cc1ccc(C(c2ccc(C#N)cc2)n2cncn2)cc1 [1-[bis(4-cyanophenyl)methyl]-1,2,4-triazole]
- Estrus number [1]: 27
- Estrus rate (%) [1]: 90.00^a %
- Interval from stopping taking Altrenogest to estrus (days) [1]: 6.13 ± 0.12^b days
- Estrus number [2]: 23
- Estrus rate (%) [2]: 85.19^a %
- Interval from stopping taking Altrenogest to estrus (days) [2]: 6.07 ± 0.13^b days
- Estrus number [3]: 22
- Estrus rate (%) [3]: 88.00^a %
- Interval from stopping taking Altrenogest to estrus (days) [3]: 6.11 ± 0.12^b days
- Estrus number [4]: 21
- Estrus rate (%) [4]: 84.00^a %
- Interval from stopping taking Altrenogest to estrus (days) [4]: 6.07 ± 0.15^b days
- Estrus number [5]: 24
- Estrus rate (%) [5]: 92.31^a %
- Interval from stopping taking Altrenogest to estrus (days) [5]: 6.19 ± 0.16^b days
- Estrus number [6]: 20
- Estrus rate (%) [6]: 76.92^b %
- Interval from stopping taking Altrenogest to estrus (days) [6]: 6.70 ± 0.16^a days
- Estrus number [7]: 22
- Estrus rate (%) [7]: 84.61^a %
- Interval from stopping taking Altrenogest to estrus (days) [7]: 6.77 ± 0.14^a days
- Estrus number [8]: 4
- Estrus rate (%) [8]: 16.67^b %
- Interval from stopping taking Altrenogest to estrus (days) [8]: 6.25 ± 0.14^b days
- Estrus number [9]: 0
- Estrus rate (%) [9]: 0.00^b %
- Estrus number [10]: 0
- Estrus rate (%) [10]: 0.00^b %
- Number of estrous animals at different times after stopping Altrenogest (day/animal) (day 4.5, Example 2 Treatment group 1: 12 μg/kg·BW/day orally, 1 day): 0 animal
- Number of estrous animals at different times after stopping Altrenogest (day/animal) (day 4.5, Example 2 Treatment group 2: 12 μg/kg·BW/day orally, 2 days): 0 animal
- Number of estrous animals at different times after stopping Altrenogest (day/animal) (day 4.5, Example 2 Treatment group 3: 20 μg/kg·BW/day orally, 1 day): 0 animal
- Number of estrous animals at different times after stopping Altrenogest (day/animal) (day 4.5, Example 2 Treatment group 4: 20 μg/kg·BW/day orally, 2 days): 0 animal
- Number of estrous animals at different times after stopping Altrenogest (day/animal) (day 4.5, Example 2 Treatment group 5: 20 μg/kg·BW/day orally, 3 days): 0 animal
- Number of estrous animals at different times after stopping Altrenogest (day/animal) (day 4.5, Example 2 Treatment group 6: 20 μg/kg·BW/day orally, 5 days): 0 animal
- Number of estrous animals at different times after stopping Altrenogest (day/animal) (day 4.5, Example 2 Treatment group 7: 40 μg/kg·BW/day orally, 1 day): 0 animal
- Number of estrous animals at different times after stopping Altrenogest (day/animal) (day 4.5, Example 2 Treatment group 8: 40 μg/kg·BW/day orally, 5 days): 0 animal
- Number of estrous animals at different times after stopping Altrenogest (day/animal) (day 5, Example 2 Treatment group 1: 12 μg/kg·BW/day orally, 1 day): 1 animal
- Number of estrous animals at different times after stopping Altrenogest (day/animal) (day 5, Example 2 Treatment group 2: 12 μg/kg·BW/day orally, 2 days): 0 animal
- Number of estrous animals at different times after stopping Altrenogest (day/animal) (day 5, Example 2 Treatment group 3: 20 μg/kg·BW/day orally, 1 day): 0 animal
- Number of estrous animals at different times after stopping Altrenogest (day/animal) (day 5, Example 2 Treatment group 4: 20 μg/kg·BW/day orally, 2 days): 0 animal
- Number of estrous animals at different times after stopping Altrenogest (day/animal) (day 5, Example 2 Treatment group 5: 20 μg/kg·BW/day orally, 3 days): 2 animal
- Number of estrous animals at different times after stopping Altrenogest (day/animal) (day 5, Example 2 Treatment group 6: 20 μg/kg·BW/day orally, 5 days): 1 animal
- Number of estrous animals at different times after stopping Altrenogest (day/animal) (day 5, Example 2 Treatment group 7: 40 μg/kg·BW/day orally, 1 day): 0 animal
- Number of estrous animals at different times after stopping Altrenogest (day/animal) (day 5, Example 2 Treatment group 8: 40 μg/kg·BW/day orally, 5 days): 0 animal
- Number of estrous animals at different times after stopping Altrenogest (day/animal) (day 5.5, Example 2 Treatment group 1: 12 μg/kg·BW/day orally, 1 day): 8 animal
- Number of estrous animals at different times after stopping Altrenogest (day/animal) (day 5.5, Example 2 Treatment group 2: 12 μg/kg·BW/day orally, 2 days): 9 animal
- Number of estrous animals at different times after stopping Altrenogest (day/animal) (day 5.5, Example 2 Treatment group 3: 20 μg/kg·BW/day orally, 1 day): 7 animal
- Number of estrous animals at different times after stopping Altrenogest (day/animal) (day 5.5, Example 2 Treatment group 4: 20 μg/kg·BW/day orally, 2 days): 8 animal
